Results on 11 molecules are retold here after patent US11584744B2 (UNIVERSITY OF WASHINGTON, priority 2017, dated 2023).

For assay [1], the system named is S. aureus MSSA (ATCC 29213). Briefly: MIC susceptibility testing. To be noted: S. aureus ATCC 29213; for MIC: Staphylococcus aureus, read-out: (F) S. aureus (ATCC 29213) MIC. In kind it is cell-based, Staphylococcus aureus.
For assay [2], the system named is S. aureus MRSA (ATCC 33591). Put plainly: MIC susceptibility testing. Format: cell-based, Staphylococcus aureus. To be noted: MRSA ATCC33591; for MIC: Staphylococcus aureus, read-out: (G) MRSA (ATCC33591) MIC. A digest of the protocol:
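CLSI broth microdilution in triplicate, 5×10^5 CFU/mL final, ≤0.5% DMSO; MHB for S. aureus, CA-MHB for E. coli and E. faecium, CA-MHB plus 3% laked horse blood for S. pyogenes (5% CO2).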

In assay [3] the test system is T. brucei. Put plainly: T. brucei growth inhibition. In kind it is cell-based, Trypanosoma brucei. Particulars: read-out: (D) T. brucei EC50.
The target of assay [4] is MetRS (C. parvum) (Cryptosporidium parvum, UniProt Q5CVN0). Briefly: MetRS (C. parvum) enzyme inhibition. Particulars: read-out: (C) MetRS (C. parvum) IC50. Format: biochemical.
Assay [5] deals with T1, MetRS (T. brucei) (Trypanosoma brucei brucei, UniProt Q38C91).
T1 sequence (Q38C91 1-773): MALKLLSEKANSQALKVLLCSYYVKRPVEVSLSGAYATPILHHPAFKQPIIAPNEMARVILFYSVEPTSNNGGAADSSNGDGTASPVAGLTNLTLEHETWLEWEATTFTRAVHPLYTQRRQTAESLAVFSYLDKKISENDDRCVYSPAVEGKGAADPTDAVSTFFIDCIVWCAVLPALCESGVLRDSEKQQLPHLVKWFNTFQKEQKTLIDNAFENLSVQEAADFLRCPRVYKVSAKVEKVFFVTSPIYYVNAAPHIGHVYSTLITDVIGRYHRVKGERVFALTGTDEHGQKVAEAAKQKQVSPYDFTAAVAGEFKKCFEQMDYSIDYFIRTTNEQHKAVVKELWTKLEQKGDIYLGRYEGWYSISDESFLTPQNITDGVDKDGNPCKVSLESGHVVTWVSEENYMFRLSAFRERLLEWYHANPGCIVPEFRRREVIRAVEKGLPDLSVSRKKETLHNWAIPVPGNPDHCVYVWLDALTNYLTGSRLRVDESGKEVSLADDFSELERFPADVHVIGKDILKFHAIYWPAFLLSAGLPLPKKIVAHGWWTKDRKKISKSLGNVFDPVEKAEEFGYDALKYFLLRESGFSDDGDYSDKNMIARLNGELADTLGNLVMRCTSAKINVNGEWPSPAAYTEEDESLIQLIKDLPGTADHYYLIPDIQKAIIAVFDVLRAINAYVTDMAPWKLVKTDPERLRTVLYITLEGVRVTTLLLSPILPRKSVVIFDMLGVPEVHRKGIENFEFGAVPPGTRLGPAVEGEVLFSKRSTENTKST
Put plainly: MetRS (T. brucei) enzyme inhibition. Format: biochemical.

In assay [6] the test system is T. cruzi. Put plainly: T. cruzi growth inhibition. In kind it is cell-based, Trypanosoma cruzi. To be noted: Trypanosoma cruzi; read-out: (E) T. cruzi EC50.
Assay [7] has as its system E. faecium VRE (ATCC 51559). Put plainly: MIC susceptibility testing. Particulars: E. faecium ATCC 51559; for MIC: Enterococcus faecium, read-out: (I) E. faecium (ATCC 51559) MIC. Format: cell-based, Enterococcus faecium. The source says:
Media and culture conditions. Mueller Hinton broth (MHB), cation adjusted Mueller Hinton broth (CA-MHB), and Brain Heart Infusion broth (BHI) were purchased from Becton Dickinson (Franklin Lakes, N.J.). Tryptic soy agar (TSA) plates, TSA with 5% sheep blood plates, and CA-MHB with 3% laked horse blood were purchased from Remel (San Diego, Calif.). MHB was used to assay all Staphylococcus aureus strains. CA-MHB was used for Staphylococcus epidermidis, Enterococcus faecalis, Enterococcus faecium, Escherichia coli, and Pseudomonas aeruginosa. CA-MHB supplemented with 3% laked horse blood was used for Streptococcus pneumoniae and Streptococcus pyogenes. Staphylococcus, Enterococcus, Escherichia, and Pseudomonas strains were cultured at 37° C. with ambient air. Streptococcus strains were cultured in 37° C. with 5% CO2. Separate conditions for radiolabeled precursor uptake assays are described below.
Susceptibility testing: Minimum inhibitory concentration (MIC) determinations were performed in triplicate in 96-well round bottom microtiter plates (Corning, Corning N.Y.) as described by the Clinical and Laboratory Standards Institute (CLSI). Serial two-fold dilutions of compounds were added to plates in 50 μL volumes. An additional 50 μL of media containing bacterial cells (1×10^6 CFUs/mL) was then added to each well. Maximum DMSO concentrations were 0.5%. Plates were incubated at 37° C. for at least 18 h before reading the susceptibility result by optical absorbance (OD600) using a BioTek ELx800. The lowest concentration causing ≥90% growth inhibition compared to the untreated control was recorded as the MIC (and also corresponded to the visual MIC). MICs were measured at least twice and the higher value (if different) was recorded herein.

Assay [8] deals with C. parvum. Briefly: C. parvum growth inhibition. In kind it is cell-based, Cryptosporidium parvum. Particulars: Cryptosporidium parvum; read-out: (J) C. parvum EC50.

In brackets after ≈: the same amount, converted by molar mass. Several values for one entry are separate records, joined by “and”; a condition that tells them apart may be missing. Identical values can stand only once. Like-named read-outs stand apart in the source and are kept apart here.

Sequence of MetRS (C. parvum) (Q5CVN0 entry or part of it): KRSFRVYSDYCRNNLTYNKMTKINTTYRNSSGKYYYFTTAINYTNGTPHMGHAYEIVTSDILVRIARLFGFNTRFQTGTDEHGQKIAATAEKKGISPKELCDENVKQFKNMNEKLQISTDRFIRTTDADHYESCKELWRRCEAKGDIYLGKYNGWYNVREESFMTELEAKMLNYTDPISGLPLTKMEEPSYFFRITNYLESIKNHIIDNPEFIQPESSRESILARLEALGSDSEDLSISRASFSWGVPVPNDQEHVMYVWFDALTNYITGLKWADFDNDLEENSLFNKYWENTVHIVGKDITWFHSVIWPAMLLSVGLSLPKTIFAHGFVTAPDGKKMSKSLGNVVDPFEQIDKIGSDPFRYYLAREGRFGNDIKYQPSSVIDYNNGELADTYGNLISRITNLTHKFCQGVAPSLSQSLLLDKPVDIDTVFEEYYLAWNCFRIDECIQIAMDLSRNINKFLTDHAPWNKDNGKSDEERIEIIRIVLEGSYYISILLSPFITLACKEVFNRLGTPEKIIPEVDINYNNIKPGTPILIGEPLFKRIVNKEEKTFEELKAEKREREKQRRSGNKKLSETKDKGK

Consider `COc1ccc(-c2cnn3c2CN(Cc2nc4nc(Cl)ccc4[nH]2)CC3)c(Cl)c1` [Compound 2172, 5-chlor0-2-((3-(2-chloro-4-methoxyphenyl)-6,7-dihydropyrazolo[1,5-a]pyrazin-5(4H)-yl)methyl)-1H-imidazo[4,5-b]pyridine], for which the “(F) S. aureus (ATCC 29213) MIC” value in assay [1] stood at 0.898 µg/mL. Also, the MIC in assay [1] turned out to be 1.69 µg/mL (≈ 3.94 µM); in assay [2] it was 1.32 µg/mL (≈ 3.07 µM); in assay [7], 0.467 µg/mL (≈ 1.09 µM). In addition, the EC50 in assay [3] (Trypanosoma brucei) is 29.3 nM; in assay [3], 35 nM; in assay [6], 213 nM. Further, the IC50 in assay [4] and in assay [5] was below 40 nM each time.

Consider `COC(=O)Nc1ccc(-c2ccc(OC)cc2Cl)n2cc(Cc3nc4ccc(Cl)cc4[nH]3)nc12` [Compound 2181, methyl N-{2-[(6-chloro-1H-1,3-benzodiazol-2-yl)methyl]-5-(2-chloro-4-methoxyphenyl)imidazo[1,2-a]pyridin-8-yl}carbamate], for which the MIC turned out to be 0.822 µg/mL (≈ 1.66 µM) in assay [2] and 0.694 µg/mL (≈ 1.4 µM) in assay [7]. The EC50 is 61.1 nM in assay [3] (Trypanosoma brucei) and 538 nM in assay [6]. Moreover, the IC50 was 52.9 nM in assay [4] and below 40 nM in assay [5].

As to `COc1ccc(Cc2cn(Cc3nc4nc(Cl)ccc4[nH]3)c(=O)n2CC(C)(C)N)c(Cl)c1` [Compound 2208, 3-(2-amin0-2-methylpropyl)-1-({5-chloro-1H-imidazo[4,5-b]pyridin-2-yl}methyl)-4-[(2-chloro-4-methoxyphenyl)methyl]-2,3-dihydro-1H-imidazol-2-one], the “(F) S. aureus (ATCC 29213) MIC” value in assay [1] turned out to be 1.53 µg/mL. Further, the MIC was found to be 2.4 µg/mL (≈ 5.05 µM) in assay [1], 1.8 µg/mL (≈ 3.79 µM) in assay [2] and 0.28 µg/mL (≈ 0.589 µM) in assay [7]. For the same molecule, the IC50 in assay [4] and in assay [5] was below 40 nM throughout. The values for the EC50 in assay [8] and in assay [6] were above 2000 nM and 297 nM, respectively.

With `CC(C)(N)Cn1c(Cc2ccc(Cl)cc2Cl)cn(Cc2nc3nc(Cl)ccc3[nH]2)c1=O` [Compound 2212, 5-(2,4-dichlorobenzyl)-1-(2-amin0-2-methylpropyl)-3-((5-chloro-1H-imidazo[4,5-b]pyridin-2-yl)methyl)-1H-imidazol-2(3H)-one], in assay [1], the “(F) S. aureus (ATCC 29213) MIC” value was 1.33, μg/ml and 1.65 μg/ml. Besides, the MIC was found to be 1.72 µg/mL (≈ 3.58 µM) in assay [1] and 0.512 µg/mL (≈ 1.07 µM) in assay [7]. Besides, the EC50 in assay [3] (Trypanosoma brucei) was 3.03 nM; in assay [8], above 2000 nM; in assay [6] it was 236 nM. Further, the IC50 in assay [4] is 45.7 nM; in assay [5], below 40 nM. Also, in assay [7], the “(I) E. faecium (ATCC 51559) MIC” value was determined as 0.426 µg/mL.

For `COC(=O)Cn1c(C(O)c2ccc(Cl)cc2Cl)cn(Cc2nc3ccc(Cl)nc3[nH]2)c1=O` (stereo not shown) [Compound 2217, methyl 2-(3-((5-chloro-3H-imidazo[4,5-b]pyridin-2-yl)methyl)-5-((2,4-dichlorophenyl)(hydroxy)methyl)-2-oxo-2,3-dihydro-1H-imidazol-1-yl)acetate], in assay [1], the “(F) S. aureus (ATCC 29213) MIC” value is 3.12, μg/ml and 3.27 μg/ml. Besides, the MIC in assay [1] was above 2.5 µg/mL; in assay [7] it was 0.691 µg/mL (≈ 1.39 µM). Moreover, the results for the EC50 in assay [3] (Trypanosoma brucei), in assay [8] and in assay [6] were 11.6 nM, above 2000 nM and 2600 nM, respectively. Besides, the results for the IC50 in assay [4] and in assay [5] were 59.3 nM and below 40 nM, respectively.

Regarding `CCNC(=O)Cn1c(C(=O)c2ccc(Cl)cc2Cl)cn(Cc2nc3nc(Cl)ccc3[nH]2)c1=O` [Compound 2227, 2-[3-({5-chloro-1H-imidazo[4,5-b]pyridin-2-yl}methyl)-5-(2,4-dichlorobenzoyl)-2-oxo-2,3-dihydro-1H-imidazol-1-yl]—N-ethylacetamide], the MIC in assay [1] worked out at 1.07 µg/mL (≈ 2.11 µM); in assay [2] it was 0.482 µg/mL (≈ 0.949 µM); in assay [7] it was 0.175 µg/mL (≈ 0.345 µM). The EC50 in assay [3] (Trypanosoma brucei) was below 0.91 nM; in assay [3] it was 1.47 nM; in assay [8] it was above 2000 nM; in assay [6] it was 819 nM. For the same molecule, the IC50 in assay [4] was below 40 nM.

Turning to `COc1ccc(-c2cccc3c2CN(Cc2nc4c(C#N)c(Cl)ccc4[nH]2)C3)c(Cl)c1` [Compound 2229, 5-chlor0-2-((4-(2-chloro-4-methoxyphenyl)isoindolin-2-yl)methyl)-1H-benzo[d]imidazole-4-carbonitrile], the MIC in assay [1] worked out at 0.926 µg/mL (≈ 2.06 µM); in assay [2], 0.762 µg/mL (≈ 1.7 µM); in assay [7], 0.327 µg/mL (≈ 0.728 µM). The values for the 50% effective concentration (EC50) in assay [3] (Trypanosoma brucei), in assay [8] and in assay [6] were 91.4 nM, 1980 nM and 650 nM, respectively. Moreover, in assay [4], the IC50 stood at 84.7 nM.

As to `COc1ccc(-c2cccc3c2CN(Cc2nc4cc(Cl)ccc4[nH]2)C3=O)c(Cl)c1` [Compound 2232, 2-((5-chloro-1H-benzo[d]imidazol-2-yl)methyl)-4-(2-chloro-4-methoxyphenyl)isoindolin-1-one], the figures for the MIC in assay [2] and in assay [7] were 0.448 µg/mL (≈ 1.02 µM) and 0.415 µg/mL (≈ 0.947 µM), respectively. The EC50 in assay [3] (Trypanosoma brucei) was 71.3 nM; in assay [8], above 2000 nM; in assay [6] it was 244 nM. Also, the IC50 in assay [4] came out at 53.9 nM.

For `NC(=O)Cn1c(C(=O)c2ccc(Cl)cc2Cl)cn(Cc2nc3ccc(Cl)nc3[nH]2)c1=O` [Compound 2234, 2-[3-({5-chloro-1H-imidazo[4,5-b]pyridin-2-yl}methyl)-5-(2,4-dichlorobenzoyl)-2-oxo-2,3-dihydro-1H-imidazol-1-yl]acetamide], the MIC was above 8 µg/mL in assay [2] and 1.06 µg/mL (≈ 2.21 µM) in assay [7]. The EC50 in assay [3] (Trypanosoma brucei) is 9.17 nM; in assay [3], 7.98 nM; in assay [8], above 2000 nM; in assay [6], 2100 nM. Further, the IC50 in assay [4] is below 40 nM.

As for `CCOC(=O)Nn1c(C(=O)c2ccc(Cl)cc2Cl)cn(Cc2nc3ccc(Cl)nc3[nH]2)c1=O` [Compound 2244], the “(F) S. aureus (ATCC 29213) MIC” value in assay [1] was determined as 2.21 µg/mL. Besides, the MIC in assay [1] (ATCC29213|MSSA) amounted to 1.66 µg/mL (≈ 3.26 µM); in assay [2] (ATCC33591|MRSA), 1.57 µg/mL (≈ 3.08 µM); in assay [7] (ATCC51559|VRE) it was 0.531 µg/mL (≈ 1.04 µM). Moreover, in assay [4], the IC50 is below 40 nM. The EC50 in assay [8] was above 2000 nM; in assay [6] it was 541 nM. The “(I) E. faecium (ATCC 51559) MIC” value in assay [7] was found to be 0.555 µg/mL.

For the molecule `COc1ccc(-c2nccc3nn(Cc4nc5nc(Cl)ccc5[nH]4)cc23)c(Cl)c1` [Compound 2247, 2-({5-chloro-1H-imidazo[4,5-b]pyridin-2-yl}methyl)-4-(2-chloro-4-methoxyphenyl)-2H-pyrazolo[4,3-c]pyridine], the “(F) S. aureus (ATCC 29213) MIC” value in assay [1] was 1.43 µg/mL. For the same molecule, the values for the MIC in assay [1], in assay [2] and in assay [7] were 1.18 µg/mL (≈ 2.77 µM), 1.46 µg/mL (≈ 3.43 µM) and 1.08 µg/mL (≈ 2.54 µM), respectively. Moreover, the “(G) MRSA (ATCC33591) MIC” value in assay [2] was 1.58 µg/mL. Also, the EC50 in assay [3] (Trypanosoma brucei) is 200 nM; in assay [8] it was above 2000 nM; in assay [6] it was 1650 nM. Also, the IC50 in assay [4] turned out to be 218 nM.
